Consider 4 molecules from patent US20160280736A1, “CYCLIC PEPTIDE COMPOUND, AND PREPARATION METHOD, PHARMACEUTICAL COMPOSITION AND USE THEREOF” (HANGZHOU GUANYU BIO-MEDICAL CO., LTD., priority 2013, published 2016).

For test [1], the system named is KBM-5 (human chronic myelogenous leukemia). Kind of test: MTT cancer cell growth inhibition. It is filed as cell-based. As to conditions: KBM5, 72 h, KBM-5 cells, 72 hours incubation. The text has this:
(§1) MTT assay principle is yellow MTT can penetrate membrane into the cell, succinic dehydrogenase of the mitochondria in living cells can make exogenous MTT reduction of insoluble in water of blue-violet acicular formazan for crystallization and deposition in the cell, crystallization can be dissolved dimethyl sulfoxide (DMSO) solution, detected its absorbance at 490 nm/570 nm wavelength by enzyme-linked immunosorbent assay, which can reflect the number of cells.
(§2) Using DMEM+10% FBS culture medium or using 1640+10% FBS culture, respectively.
(§3) Experimental group: 190 μl cell suspension+10 μl different concentrations of drugs (the final concentration is 10^−5˜10^−10 M)
(§4) a) Cells were seeded in 96-well plates with the inoculation of 1500/well, 190 μl/hole, 37° C., 5% of CO2 incubator overnight;
(§5) b) The next day each well was added 10 μl of different drugs. The final concentration of drug was 10^−5˜10^−10 M, three parallel holes; 37° C., 5% CO2 culture incubator for 72 hours incubation;
(§6) c) Per well was added 20 μl 5 mg/ml of MTT, 37° C., 5% CO2 culture incubator for 4 hours incubation;
(§7) d) The supernatant was discarded. Each well was added 100 μl of DMSO and oscillation;
(§8) e) 570 nm readings. Calculate cell viability. GI50 calculation based on the results.

Test [2] deals with N-87 (human gastric cancer cells). Kind of test: MTT cancer cell growth inhibition. Type of test: cell-based. As to conditions: 72 h, N-87 cells, 72 hours incubation.
Text: as §1, §2, §3, §4, §5, §6, §7, §8

For test [3], the system named is Huh-7 (human hepatoma cells). Kind of test: MTT cancer cell growth inhibition. Particulars: Huh-7, 72 h, Huh-7 cells, 72 hours incubation. Type of test: cell-based.
Text: as §1, §2, §3, §4, §5, §6, §7, §8

The subject of test [4] is SGC-7901 (human gastric cancer cells). Kind of test: MTT cancer cell growth inhibition. It is filed as cell-based. Particulars: SGC-7901, 72 h, SGC-7901 cells, 72 hours incubation, read-out: GI50 SGC-79.
Text: as §1, §2, §3, §4, §5, §6, §7, §8

Test [5] deals with K562 (human leukemia cells). The experiment in a line: MTT cancer cell growth inhibition. Type of test: cell-based. Particulars: K562, 72 h, 72 hours incubation.
Text: as §1, §2, §3, §4, §5, §6, §7, §8

Test [6] concerns MDA-MB-231 (breast cancer cells). Kind of test: MTT cancer cell growth inhibition. Particulars: Homo sapiens, MDA-MB-231, 72 h, MDA-MB-231 cells, 72 hours incubation. Type of test: cell-based.
Text: as §1, §2, §3, §4, §5, §6, §7, §8

The test system of test [7] is KBM5-T315I (human chronic myelogenous leukemia). The experiment in a line: MTT cancer cell growth inhibition. It is filed as cell-based. Particulars: 72 h, KBM5-T315I cells, 72 hours incubation, read-out: GI50 KBM5-T.
Text: as §1, §2, §3, §4, §5, §6, §7, §8

Test [8] deals with HCC827 (human non-small cell lung cancer cells). Kind of test: MTT cancer cell growth inhibition. It is filed as cell-based. As to conditions: HCC827, 72 h, 72 hours incubation, read-out: GI50 HCC8.
Text: as §1, §2, §3, §4, §5, §6, §7, §8

Test [9] relates to Bel-7402 (human hepatoma cells). The experiment in a line: MTT cancer cell growth inhibition. It is filed as cell-based. As to conditions: Bel-7402, 72 h, Bel-7402 cells, 72 hours incubation, read-out: GI50 Bel-7.
Text: as §1, §2, §3, §4, §5, §6, §7, §8

The target of another test is T1, HDAC11 (Homo sapiens, UniProt Q96DB2).
T1 sequence (Q96DB2 1-347): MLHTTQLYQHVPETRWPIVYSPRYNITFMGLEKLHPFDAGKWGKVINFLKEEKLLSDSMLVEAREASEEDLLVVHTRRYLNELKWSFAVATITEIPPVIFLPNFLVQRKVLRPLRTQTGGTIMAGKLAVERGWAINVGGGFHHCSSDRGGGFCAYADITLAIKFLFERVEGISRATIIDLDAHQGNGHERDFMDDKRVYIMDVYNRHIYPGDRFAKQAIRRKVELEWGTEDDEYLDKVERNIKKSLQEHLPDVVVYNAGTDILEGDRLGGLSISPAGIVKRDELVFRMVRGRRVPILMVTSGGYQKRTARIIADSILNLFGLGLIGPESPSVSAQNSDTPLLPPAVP
Kind of test: HDAC biochemical activity measurement (fluorescent substrate deacetylation). Particulars: IC50 (μM) HDAC11, HDAC11 enzyme, 37°, 30 minutes.

Test [10] deals with MCF-7 (human breast cancer cells). Kind of test: MTT cancer cell growth inhibition. Particulars: Homo sapiens, MCF7, 72 h, 72 hours incubation, MCF-7 cells. Type of test: cell-based.
Text: as §1, §2, §3, §4, §5, §6, §7, §8

Test [11] has as its system A549 (human lung cancer cells). The experiment in a line: MTT cancer cell growth inhibition. It is filed as cell-based. Particulars: Homo sapiens, A549, 72 h, 72 hours incubation, A549 cells, read-out: GI50 A549.
Text: as §1, §2, §3, §4, §5, §6, §7, §8

In test [12] the test system is MOLT-4 (human acute lymphoblastic leukemia cells). Kind of test: MTT cancer cell growth inhibition. Particulars: Homo sapiens, MOLT-4, 72 h, 72 hours incubation, MOLT-4 cells, read-out: GI50 Molt-. Type of test: cell-based.
Text: as §1, §2, §3, §4, §5, §6, §7, §8

For test [13], the system named is DU145 (human prostate cancer cells). Kind of test: MTT cancer cell growth inhibition. It is filed as cell-based. Particulars: Homo sapiens, DU-145, 72 h, 72 hours incubation, DU145 cells, read-out: GI50 Du14.
Text: as §1, §2, §3, §4, §5, §6, §7, §8

In test [14] the test system is U937 (human leukemia cells). Kind of test: MTT cancer cell growth inhibition. It is filed as cell-based. As to conditions: Homo sapiens, U-937, 72 h, 72 hours incubation.
Text: as §1, §2, §3, §4, §5, §6, §7, §8

Test [15] relates to lncap (prostate cancer cells). The experiment in a line: MTT cancer cell growth inhibition. Particulars: Homo sapiens, LNCaP, 72 h, 72 hours incubation, lncap cells, read-out: GI50 lncap. Type of test: cell-based.
Text: as §1, §2, §3, §4, §5, §6, §7, §8

The subject of test [16] is PANC-1 (Pac-1, human pancreatic cancer cells). Kind of test: MTT cancer cell growth inhibition. As to conditions: Homo sapiens, PANC-1, 72 h, 72 hours incubation, PANC-1 cells, read-out: GI50 PAN. Type of test: cell-based.
Text: as §1, §2, §3, §4, §5, §6, §7, §8

Test [17] deals with BGC-823 (human gastric cancer cells). The experiment in a line: MTT cancer cell growth inhibition. Particulars: Homo sapiens, BGC-823, 72 h, 72 hours incubation, BGC-823 cells, read-out: GI50 BGC8. Type of test: cell-based.
Text: as §1, §2, §3, §4, §5, §6, §7, §8

The subject of test [18] is Hela (human cervical cancer cells). Kind of test: MTT cancer cell growth inhibition. It is filed as cell-based. Particulars: Homo sapiens, HeLa, 72 h, 72 hours incubation, Hela cells, read-out: GI50 Hela.
Text: as §1, §2, §3, §4, §5, §6, §7, §8

The subject of test [19] is HT1080 (human fibrosarcoma cells). Kind of test: MTT cancer cell growth inhibition. It is filed as cell-based. As to conditions: Homo sapiens, HT-1080, 72 h, 72 hours incubation, HT1080 cells, read-out: GI50 HT10.
Text: as §1, §2, §3, §4, §5, §6, §7, §8

Another test deals with HDAC3 (Homo sapiens, UniProt O15379). Kind of test: HDAC biochemical activity measurement (fluorescent substrate deacetylation). Particulars: IC50 (μM) HDAC3, HDAC3 enzyme, 37°, 30 minutes.
Sequence of HDAC3 (O15379 whole entry, species assumed): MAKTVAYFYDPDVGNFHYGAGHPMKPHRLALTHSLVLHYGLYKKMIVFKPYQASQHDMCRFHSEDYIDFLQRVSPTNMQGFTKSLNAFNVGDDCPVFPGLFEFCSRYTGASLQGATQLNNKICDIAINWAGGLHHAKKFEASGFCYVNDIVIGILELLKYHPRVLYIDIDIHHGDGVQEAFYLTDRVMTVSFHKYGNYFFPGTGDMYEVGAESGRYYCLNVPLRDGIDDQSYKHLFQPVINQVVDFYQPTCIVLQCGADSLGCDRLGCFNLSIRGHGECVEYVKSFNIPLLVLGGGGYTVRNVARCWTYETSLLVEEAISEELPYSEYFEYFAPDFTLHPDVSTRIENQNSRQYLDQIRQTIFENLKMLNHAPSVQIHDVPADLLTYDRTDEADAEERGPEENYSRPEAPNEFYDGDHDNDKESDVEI
Sequence of HDAC3 (Q9Y618 395-489 partner limits assumed, species assumed): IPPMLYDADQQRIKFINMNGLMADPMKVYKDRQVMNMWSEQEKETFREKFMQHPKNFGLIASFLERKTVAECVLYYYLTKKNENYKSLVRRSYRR
A further test addresses HDAC1 (Homo sapiens, UniProt Q13547). The description is as above. As to conditions: HDAC1 enzyme, 37°, 30 minutes.
The target of another test is HDAC2 (Homo sapiens, UniProt Q92769). The description is as above. Particulars: HDAC2 enzyme, 37°, 30 minutes.
Sequence of HDAC2 (Q92769 whole entry, species assumed): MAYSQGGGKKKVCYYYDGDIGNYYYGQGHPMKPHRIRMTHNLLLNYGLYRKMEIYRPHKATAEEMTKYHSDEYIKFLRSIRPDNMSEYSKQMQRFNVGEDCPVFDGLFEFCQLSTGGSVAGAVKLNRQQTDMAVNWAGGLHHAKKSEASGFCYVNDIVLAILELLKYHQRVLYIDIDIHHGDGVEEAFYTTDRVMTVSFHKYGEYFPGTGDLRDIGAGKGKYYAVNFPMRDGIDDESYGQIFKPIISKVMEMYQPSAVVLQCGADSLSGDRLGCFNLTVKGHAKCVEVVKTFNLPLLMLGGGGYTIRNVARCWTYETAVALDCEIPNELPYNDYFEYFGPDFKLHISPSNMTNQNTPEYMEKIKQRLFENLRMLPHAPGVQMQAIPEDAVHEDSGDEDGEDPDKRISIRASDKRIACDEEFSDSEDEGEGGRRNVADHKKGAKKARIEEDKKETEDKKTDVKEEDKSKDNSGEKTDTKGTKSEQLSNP
The target in a further test is T2, HDAC8 (Homo sapiens, UniProt Q9BY41).
T2 sequence (Q9BY41 1-377): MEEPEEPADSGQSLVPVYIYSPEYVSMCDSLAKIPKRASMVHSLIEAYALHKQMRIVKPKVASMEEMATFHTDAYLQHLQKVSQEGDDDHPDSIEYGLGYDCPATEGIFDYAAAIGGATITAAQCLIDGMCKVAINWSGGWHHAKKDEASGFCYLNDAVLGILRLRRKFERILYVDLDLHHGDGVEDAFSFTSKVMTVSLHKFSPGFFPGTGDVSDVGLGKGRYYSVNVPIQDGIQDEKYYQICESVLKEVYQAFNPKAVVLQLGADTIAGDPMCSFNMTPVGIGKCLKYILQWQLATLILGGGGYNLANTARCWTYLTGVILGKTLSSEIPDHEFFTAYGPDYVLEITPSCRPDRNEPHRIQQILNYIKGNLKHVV
The test is described as above. As to conditions: HDAC8 enzyme, 37°, 30 minutes.

Each structure is given as a SMILES string.

Sequence of HDAC1 (Q13547 whole entry, species assumed): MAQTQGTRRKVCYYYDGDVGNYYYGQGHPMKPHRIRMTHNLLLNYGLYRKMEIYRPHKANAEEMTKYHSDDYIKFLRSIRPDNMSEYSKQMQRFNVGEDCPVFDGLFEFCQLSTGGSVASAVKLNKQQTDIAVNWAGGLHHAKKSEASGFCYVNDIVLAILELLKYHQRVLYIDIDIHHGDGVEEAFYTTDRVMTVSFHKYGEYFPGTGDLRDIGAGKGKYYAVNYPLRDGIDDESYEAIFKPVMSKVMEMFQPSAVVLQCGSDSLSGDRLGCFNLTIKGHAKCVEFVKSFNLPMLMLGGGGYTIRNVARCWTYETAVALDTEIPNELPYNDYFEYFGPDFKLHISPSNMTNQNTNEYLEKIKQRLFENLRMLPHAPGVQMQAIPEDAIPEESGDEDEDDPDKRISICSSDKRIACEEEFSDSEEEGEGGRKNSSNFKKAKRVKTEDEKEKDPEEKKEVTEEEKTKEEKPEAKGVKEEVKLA
Procedure for HDAC11: (§9) Measurement principle: The chemical activity of the compound is determined according to the degree of deacetylation inhibition of the HDAC enzyme. This experiment measured the degree of deacetylation related to tumor proliferation and metastasis of HDAC1, HDAC2, HDAC3, HDAC8, HDAC11 five subtypes HDAC enzymes. After the substrate containing an acetylated lysine side chain and HDAC enzyme are labeled with a fluorescent label, the fluorescent substrate is de acetyl. The fluorescent labeled substrate is cleaved by the enzyme, and the fluorescent substance is released, which generates 460 nm emission light under the excitation of 360 nm light.
(§10) Specific steps: HDAC substrate was diluted with reaction buffer to 200M (reaction concentration of 20M), the HDAC enzyme was diluted to the appropriate concentration, then added different concentrations of the test compounds and acted at 37 ? 30 minutes, and then added the same volume of 2-times concentration substrate developing solution (developer), incubated at room temperature for 15 minutes. Finally, the last reading measured with a microplate plate reader, excitation light was 360 nm, the emitted light was 460 nm, data processing software was Prime 4, and the results are shown in Table 1.
Procedure for HDAC2: as §9, §10
Procedure for HDAC3: as §9, §10
Procedure for HDAC8: as §9, §10

Turning to `C/C=C1\NC(=O)c2ccc(F)c(n2)CNC(=O)C[C@@H](/C=C/CCSC(C)=O)OC(=O)[C@H](C(C)C)NC1=O` (single isomer, unassigned) [Example 50], the GI50 is 79 nM in test [1]; 69 nM in [2]; 25 nM in test [3]; 39 nM in [4]; 42 nM in test [5]; 25 nM in test [6]. In addition, in test [7], the GI50 was found to be 63 nM.
As to `C/C=C1\NC(=O)c2cc(F)cc(n2)CNC(=O)C[C@@H](/C=C/CCSC(C)=O)OC(=O)[C@H](C(C)C)NC1=O` [Compound 49], the GI50 in [1] came out at 87 nM; in [2] it was 73 nM; in [8], 72 nM; in test [3], 26 nM; in test [4], 67 nM; in [9] it was 72 nM. In addition, the values for the GI50 in test [5], in test [6] and in test [7] were 17 nM, 26 nM and 55 nM, respectively.
With `C/C=C1\NC(=O)c2cc(SC)cc(n2)CNC(=O)C[C@@H](/C=C/CCSC(=O)CCCC)OC(=O)[C@H](C(C)C)NC1=O` [Compound 157], the IC50 at HDAC11 came to 0.091 µM; against HDAC3, 0.051 µM; against HDAC1, 0.082 µM; against HDAC2, 0.019 µM; against HDAC8, 0.027 µM. In addition, the GI50 amounted to 23 nM in test [10]; 25 nM in test [11]; 25 nM in test [12]; 73 nM in test [13]; 24 nM in test [14]; 51 nM in test [15]. The GI50 in [16] was found to be 26 nM; in test [17] it was 37 nM; in test [18], 76 nM; in [19], 95 nM.
In the case of `C/C=C1\NC(=O)c2ccc(SC)c(n2)CNC(=O)C[C@@H](/C=C/CCSC(=O)CCC)OC(=O)[C@H](C(C)C)NC1=O` [Compound 161], the IC50 on HDAC11 was 0.086 µM; against HDAC3, 0.063 µM; at HDAC1, 0.061 µM; against HDAC2 it was 0.033 µM; against HDAC8, 0.062 µM. The concentration for 50% growth inhibition (GI50) was 73 nM in test [10]; 83 nM in test [11]; 32 nM in test [12]; 23 nM in test [13]; 65 nM in test [14]; 79 nM in test [15]. Moreover, the GI50 in [16] is 11 nM; in [17], 29 nM; in test [18], 12 nM; in test [19] it was 57 nM.
